Reference: patent US9481885B2, “Methods and compositions related to miR-21 and miR-29a, exosome inhibition, and cancer metastasis” (Ohio State Innovation Foundation, priority 2011, dated 2016)

System: peritoneal macrophages
Test: ELISA for TNF-α and IL-6 on peritoneal macrophages from WT and TLR7−/− mice
Assay type: cell-based, mouse
Settings: Dotap formulations of miRNA
Experimental: Experiments were performed to determine whether the miRNA-TLR interaction is functional, and assessed whether the miRNAs of interest induce the secretion of cytokines such as TNF-α and IL-6, whose production is increased by TLR activation. We isolated peritoneal macrophages from WT and TLR7^−/− B6 mice. Cells were treated with Dotap alone or with Dotap formulations of miR-16, -21, -29a, and -147, and an ELISA for TNF-α and IL-6 was performed. In the functional assays, included also were miR-147 and -574-5p, because they have a mature viral-derived sequence that induces cytokine production through the activation of TLR8 and TLR7, similar to that of RNA33 (FIG. 14A). […] We also treated spleen cells from WT and TLR7^−/− mice with the same miRNAs and assessed expression of CD69, an early activation marker of cells which has a role in inflammation and proliferation and which also is activated by TLR3. Polyinosinic:polycytidylic acid [poly (I:C)], a known agonist of TLR3, served as positive control.
For all experiments, cells were treated with 15 μg of HPLC-purified synthetic miRNAs (Integrated DNA Technologies) complexed with Dotap Liposomal Transfection Reagent (Roche) as previously described.
Macrophages derived from the peritoneal cavity were isolated from WT and TLR7^−/− age- and sex-matched mice.
PBMC were isolated from heparinized blood of healthy donors by Ficoll-Paque (Pharmacia) centrifugation (500×g) following the manufacturer's instructions and were plated immediately for stimulation. Human PBMCs or murine peritoneal macrophages (300,000 cells) were stimulated with synthetic miRNAs for 24 h; then ELISAs for TNF-α and IL-6 were performed on the conditioned media using Multi-Analyte ELISArray Kits (SABiosciences) following the manufacturer's instructions.

[1] = peritoneal macrophages of TLR7−/− B6 mice
[2] = peritoneal macrophages of WT B6 mice

Substance: miR-147: synthetic mature miRNA (SEQ ID NO: 3), sequence similar to RNA33, Dotap formulation (GUGUGUGGAAAUGCUUCUGC; DOTAP formulation, further chemistry not given here)
- IL-6 production [1]: not
- TNF-α production [1]: not
- IL-6 production [2]: increased
- TNF-α production [2]: increased
